“And” between values parts separate entries of the source, which are not always exact repeats. Equal entries are not always repeated.
Experiments:
[1] = target: T1, PIK3CD (Homo sapiens, UniProt O00329); assay: Kinome scan profile; type: binding; details: 10 μM
T1 construct: purchased DiscoverX (KINOMEscan)
T1 sequence (O00329 1-1044): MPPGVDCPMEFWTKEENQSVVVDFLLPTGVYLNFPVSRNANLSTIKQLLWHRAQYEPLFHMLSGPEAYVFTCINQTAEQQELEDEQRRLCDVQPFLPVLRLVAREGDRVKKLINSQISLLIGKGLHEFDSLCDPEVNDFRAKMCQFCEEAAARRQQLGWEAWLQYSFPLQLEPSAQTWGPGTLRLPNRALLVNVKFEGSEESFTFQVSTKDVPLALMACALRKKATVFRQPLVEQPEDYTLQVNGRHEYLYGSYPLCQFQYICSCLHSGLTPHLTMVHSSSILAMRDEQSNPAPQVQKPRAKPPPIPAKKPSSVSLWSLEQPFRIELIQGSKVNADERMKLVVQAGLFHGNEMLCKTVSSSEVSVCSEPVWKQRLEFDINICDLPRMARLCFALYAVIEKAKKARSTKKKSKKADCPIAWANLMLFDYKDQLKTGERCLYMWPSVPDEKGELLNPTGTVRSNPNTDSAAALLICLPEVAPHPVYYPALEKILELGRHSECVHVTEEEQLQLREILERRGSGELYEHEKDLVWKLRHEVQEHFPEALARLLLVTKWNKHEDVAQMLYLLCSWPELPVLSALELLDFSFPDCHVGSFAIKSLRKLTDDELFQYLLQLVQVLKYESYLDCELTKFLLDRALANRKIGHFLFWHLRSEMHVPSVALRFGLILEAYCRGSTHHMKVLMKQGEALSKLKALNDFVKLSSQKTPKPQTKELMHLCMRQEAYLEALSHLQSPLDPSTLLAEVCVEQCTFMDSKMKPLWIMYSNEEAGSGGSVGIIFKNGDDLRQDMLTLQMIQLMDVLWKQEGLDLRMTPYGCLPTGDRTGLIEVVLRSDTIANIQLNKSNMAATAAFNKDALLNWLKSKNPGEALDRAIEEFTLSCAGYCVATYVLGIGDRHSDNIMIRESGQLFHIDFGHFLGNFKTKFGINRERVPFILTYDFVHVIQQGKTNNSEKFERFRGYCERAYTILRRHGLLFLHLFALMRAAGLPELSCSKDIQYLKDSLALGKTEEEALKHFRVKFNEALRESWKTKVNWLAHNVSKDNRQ

[2] = target: T2, ABL1(Q252H)-phosphorylated (Homo sapiens, UniProt P00519, Q252H); assay: Kinome scan profile; type: binding; details: 10 μM
T2 construct: purchased DiscoverX (KINOMEscan)

[3] = target: T3, IKK-epsilon (Homo sapiens, UniProt Q14164); assay: Kinome scan profile; type: binding; details: 10 μM
T3 construct: purchased DiscoverX (KINOMEscan)
T3 sequence (Q14164 1-716): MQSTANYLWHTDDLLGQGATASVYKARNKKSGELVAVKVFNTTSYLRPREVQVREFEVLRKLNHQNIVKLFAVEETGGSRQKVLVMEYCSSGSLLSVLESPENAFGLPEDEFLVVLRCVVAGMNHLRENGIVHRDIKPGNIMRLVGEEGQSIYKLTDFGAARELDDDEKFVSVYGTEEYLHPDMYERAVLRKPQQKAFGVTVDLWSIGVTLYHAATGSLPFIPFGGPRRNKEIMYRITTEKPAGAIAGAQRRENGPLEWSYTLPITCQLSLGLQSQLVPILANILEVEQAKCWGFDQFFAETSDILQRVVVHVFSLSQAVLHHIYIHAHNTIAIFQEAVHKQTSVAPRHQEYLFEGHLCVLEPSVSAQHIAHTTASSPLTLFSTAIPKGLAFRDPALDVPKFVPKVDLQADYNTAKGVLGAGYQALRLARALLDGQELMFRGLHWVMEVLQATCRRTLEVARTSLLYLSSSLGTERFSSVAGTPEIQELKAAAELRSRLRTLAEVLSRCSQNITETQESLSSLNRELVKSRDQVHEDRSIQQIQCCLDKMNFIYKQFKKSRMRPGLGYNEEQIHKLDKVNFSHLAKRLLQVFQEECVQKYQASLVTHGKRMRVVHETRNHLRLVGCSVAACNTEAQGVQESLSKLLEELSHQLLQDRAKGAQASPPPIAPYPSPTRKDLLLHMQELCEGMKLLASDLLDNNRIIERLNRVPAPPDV

[4] = target: T4, MYLK (Homo sapiens, UniProt Q15746); assay: Kinome scan profile; type: binding; details: 10 μM
T4 construct: purchased DiscoverX (KINOMEscan)
T4 sequence (Q15746 whole entry): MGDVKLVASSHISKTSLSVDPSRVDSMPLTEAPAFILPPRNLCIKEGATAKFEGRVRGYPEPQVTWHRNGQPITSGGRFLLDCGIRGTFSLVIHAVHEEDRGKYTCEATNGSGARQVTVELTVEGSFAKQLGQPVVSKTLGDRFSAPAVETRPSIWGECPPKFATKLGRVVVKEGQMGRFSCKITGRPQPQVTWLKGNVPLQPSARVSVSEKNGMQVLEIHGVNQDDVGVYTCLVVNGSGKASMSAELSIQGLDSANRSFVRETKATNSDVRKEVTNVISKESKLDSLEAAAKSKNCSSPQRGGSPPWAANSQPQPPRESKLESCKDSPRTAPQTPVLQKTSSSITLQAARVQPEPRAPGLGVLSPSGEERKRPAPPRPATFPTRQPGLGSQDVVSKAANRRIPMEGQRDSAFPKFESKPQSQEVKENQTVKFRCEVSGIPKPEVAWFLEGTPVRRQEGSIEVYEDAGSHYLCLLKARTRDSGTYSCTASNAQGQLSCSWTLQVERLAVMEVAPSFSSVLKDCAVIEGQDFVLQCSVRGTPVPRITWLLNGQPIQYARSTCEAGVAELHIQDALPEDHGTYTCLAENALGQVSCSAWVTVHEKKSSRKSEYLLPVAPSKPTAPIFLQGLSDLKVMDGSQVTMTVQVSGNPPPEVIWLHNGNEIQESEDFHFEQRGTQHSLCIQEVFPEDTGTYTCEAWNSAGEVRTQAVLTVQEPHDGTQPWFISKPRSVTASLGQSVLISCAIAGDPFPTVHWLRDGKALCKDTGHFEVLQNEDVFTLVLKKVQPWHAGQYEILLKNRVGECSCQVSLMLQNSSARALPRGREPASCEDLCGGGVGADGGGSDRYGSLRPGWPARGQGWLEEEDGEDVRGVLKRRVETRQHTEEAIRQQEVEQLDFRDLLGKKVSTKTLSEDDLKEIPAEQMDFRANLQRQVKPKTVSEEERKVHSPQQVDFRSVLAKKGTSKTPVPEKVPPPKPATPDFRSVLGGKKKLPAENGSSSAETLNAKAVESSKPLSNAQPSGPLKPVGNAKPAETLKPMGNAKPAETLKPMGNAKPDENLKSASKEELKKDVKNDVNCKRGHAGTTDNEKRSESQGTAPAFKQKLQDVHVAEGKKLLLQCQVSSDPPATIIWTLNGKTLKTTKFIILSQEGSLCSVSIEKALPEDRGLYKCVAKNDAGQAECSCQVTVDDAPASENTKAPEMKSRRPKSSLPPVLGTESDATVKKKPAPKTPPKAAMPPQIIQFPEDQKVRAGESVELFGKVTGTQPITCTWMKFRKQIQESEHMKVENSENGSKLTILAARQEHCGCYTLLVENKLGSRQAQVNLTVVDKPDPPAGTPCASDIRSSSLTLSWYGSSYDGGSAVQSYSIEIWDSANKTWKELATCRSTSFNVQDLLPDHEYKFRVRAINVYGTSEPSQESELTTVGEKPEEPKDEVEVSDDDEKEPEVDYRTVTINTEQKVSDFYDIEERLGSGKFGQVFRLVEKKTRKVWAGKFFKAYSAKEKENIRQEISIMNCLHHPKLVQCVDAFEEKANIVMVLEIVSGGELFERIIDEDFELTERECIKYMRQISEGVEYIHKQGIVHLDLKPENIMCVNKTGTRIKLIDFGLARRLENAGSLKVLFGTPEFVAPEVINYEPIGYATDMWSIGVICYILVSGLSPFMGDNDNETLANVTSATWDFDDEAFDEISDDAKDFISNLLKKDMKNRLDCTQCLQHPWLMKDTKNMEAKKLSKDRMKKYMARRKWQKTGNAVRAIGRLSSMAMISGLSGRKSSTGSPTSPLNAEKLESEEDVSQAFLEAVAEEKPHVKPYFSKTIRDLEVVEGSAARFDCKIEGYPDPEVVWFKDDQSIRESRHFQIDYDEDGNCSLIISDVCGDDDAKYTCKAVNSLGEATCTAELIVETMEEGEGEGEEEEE

[5] = tested on: P. falciparum NF54 gametocytes; assay: gametocyte viability assay (AlamarBlue); type: cell-based, Plasmodium falciparum
Experimental: Asexual parasites of P. falciparum strain NF54 were cultured as described previously. Briefly, parasites were maintained in RPMI 1640 medium containing 10% positive human serum + erythrocytes (5% haematocrit), 2.5% sodium bicarbonate and 11 µg/mL gentamicin at 37 °C with 5% CO2, 5% O2 and 90% N2. Gametocyte cultures were set up at 0.1% parasitaemia and on days 9–10 treated with 50 mM N-acetylglucosamine (NAG) to block further asexual growth. Stage III–V gametocytes were isolated by Percoll density gradient centrifugation on day 12 and returned to culture for 24 h before being used in the assay. At the time of the assay over 73% of the gametocytes were stage IV or V (Additional file 1). HepG2 cells (ATCC, cat. no. 77400) were cultured in 175-cm^2 tissue culture flasks with 30 ml growth medium at 37 °C in a 5% CO2 and 5% O2 humidified atmosphere. Growth medium was made with Dulbecco’s Modified Eagle Medium with 10% fetal bovine serum (FBS). Growth medium was replaced every other day and cells were passaged at 75% confluence.
Compounds from the Sytravon library (a retired Pharma screening collection that contains a diversity of novel small molecules, with an emphasis on medicinal chemistry-tractable scaffolds) were obtained as powder samples and dissolved in DMSO as […] stock solutions. Compound screening experiments were performed as previously described. In the primary screen, two concentrations for each compound were tested. No technical and biological replicates were involved. In the follow-up confirmation studies, three biological replicates were tested for each compound in both parasite assays. The positive control was 46 µM of Torin 2 and negative control was DMSO. Briefly, 2.5 μL/well incomplete medium was dispensed into each well of 1536-well plates using the Multidrop Combi followed by 23 nL compound transferring using the NX-TR Pintool (WAKO Scientific Solutions, San Diego, CA). Then, 2.5 μL/well of gametocytes was dispensed with a seeding density of 20,000 cells/well using the Multidrop Combi. The assay plates were incubated for 72 h at 37 °C with 5% CO2. After addition of 5 μL/well of 2X AlamarBlue dye (Life Technologies, cat. no. DAL1100), the plates were incubated for 24 h at 37 °C with 5% CO2 and then were read in a fluorescence detection mode (Ex = 525 nm, Em = 598 nm) on a ViewLux plate reader (PerkinElmer).

[6] = target: T5, CDK4-cyclinD3 (Homo sapiens, UniProt P11802); assay: Kinome scan profile; type: binding; details: 10 μM
T5 construct: purchased DiscoverX (KINOMEscan)
T5 sequence (P11802 whole entry): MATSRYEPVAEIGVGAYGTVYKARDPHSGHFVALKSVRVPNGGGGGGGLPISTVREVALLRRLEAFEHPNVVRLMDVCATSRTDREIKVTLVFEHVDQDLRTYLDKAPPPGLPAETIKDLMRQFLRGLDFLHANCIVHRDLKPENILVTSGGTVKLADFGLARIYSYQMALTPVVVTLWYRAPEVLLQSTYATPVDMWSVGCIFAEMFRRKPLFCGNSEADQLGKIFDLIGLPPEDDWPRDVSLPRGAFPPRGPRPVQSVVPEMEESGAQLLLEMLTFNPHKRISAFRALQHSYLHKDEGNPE
T5 sequence (P30281 whole entry partner): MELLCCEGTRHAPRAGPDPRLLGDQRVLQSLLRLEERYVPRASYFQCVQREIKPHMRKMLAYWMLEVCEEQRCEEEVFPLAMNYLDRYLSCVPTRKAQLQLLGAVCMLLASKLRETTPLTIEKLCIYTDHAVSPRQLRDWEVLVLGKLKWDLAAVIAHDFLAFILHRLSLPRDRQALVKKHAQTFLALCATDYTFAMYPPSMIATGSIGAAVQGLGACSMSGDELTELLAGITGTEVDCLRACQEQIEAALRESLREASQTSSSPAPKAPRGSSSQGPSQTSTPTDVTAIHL

% Control, PIK3CD [1]: 10 % Control
% Control, ABL1(Q252H)-phosphorylated [2]: 9.9 % Control
% Control, IKK-epsilon [3]: 31 % Control
% Control, MYLK [4]: 31 % Control
IC50 ([5]; P. falciparum NF54 stage III-V gametocytes, 72 h, AlamarBlue, mean ± SD, n = 3): 4.18 µM and 4.34 µM
% Control, CDK4-cyclinD3 [6]: 15 % Control
Compound: CCN1CCN(Cc2c(O)ccc3c(=O)c(Oc4ccccc4C(C)C)c(C(F)(F)F)oc23)CC1 [NCGC00100599]
Asexual/Gametocyte ([5]; ratio of asexual IC50 to gametocyte IC50): 0.08
